Experiments:
[1] = for mean time to peak disliking / mean peak disliking effect (Emin), VAS: 480 mg oral tablet, after high-fat breakfast; for mean time to peak disliking: high responders; for mean peak disliking effect (Emin), VAS: high responders (six subjects)
Protocol: A total of 49 subjects were enrolled. […] As identified in the randomization schedule for each subject, subjects took each dose of study drug immediately following a standardized high-fat breakfast.
During the study, each subject completed a 100 point Visual Analog Scale (VAS) “Like/Dislike” Rating Scale at dosing and for up to 6 hours post-dosing where subjects were asked “Do you like or dislike the drug effect you are feeling now?”

[2] = intestinal pH reduced from pH 8 to pH 5; cited from earlier work
[3] = at pH 4.8; cited from earlier work
[4] = in the presence of food, VAS over 6 hours

SMILES | mean time to peak disliking [1] | mean peak disliking effect (Emin), VAS [1] | enhancement of intestinal uptake [2] | fraction non-ionized [3] | high responder subjects (of six) with lower VAS scores than with standard niacin ([1]; 480 mg, fed, six high responders) | faster time to peak disliking than standard particle size niacin [1, 4] | more substantial disliking effect than standard particle size niacin [1, 4]
O=C(O)c1cccnc1 [standard niacin, niacin, reference compound] | 3.0 h | −15.3 mm |  |  |  |  | 
O=C(O)c1cccnc1 [niacin] |  |  | approximately five fold | 50% |  |  | 
O=C(O)c1cccnc1 [micronized niacin, niacin] | 2.25 h | −28.7 mm |  |  | five | 25% | 89%

Source: US20120039957A1 (ACURA PHARMACEUTICALS, INC., priority 2010, published 2012)
